One assay addresses T1, Bcl-2-related protein A1 (Mus musculus, UniProt Q07440).
T1 sequence (Q07440 whole entry): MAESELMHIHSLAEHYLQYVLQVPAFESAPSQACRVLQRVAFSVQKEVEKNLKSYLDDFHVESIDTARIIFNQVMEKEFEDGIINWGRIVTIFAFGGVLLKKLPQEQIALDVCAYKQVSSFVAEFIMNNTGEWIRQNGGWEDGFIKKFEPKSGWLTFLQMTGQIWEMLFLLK
Type of assay: functional.

The target in assay [1] is T2, Ubiquitin-conjugating enzyme E2 N (Homo sapiens, UniProt P61088).
T2 sequence (P61088 whole entry): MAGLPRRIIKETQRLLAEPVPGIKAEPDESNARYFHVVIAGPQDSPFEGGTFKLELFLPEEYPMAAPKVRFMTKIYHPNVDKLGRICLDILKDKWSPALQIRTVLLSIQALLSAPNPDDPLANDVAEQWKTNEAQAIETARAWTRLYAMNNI
It counts as functional.

Assay [2] concerns the target T2, Ubiquitin-conjugating enzyme E2 N. Type of assay: functional. The source holds these as a separate data set.
A short description of assay [3]: HEp-2 cell cytotoxicity, dose response, cytotoxicity control for RSV inhibitor project, HTS (AID 2410). Type of assay: functional. The note with it: human respiratory syncytial virus.
In assay [4] the target is G-protein coupled receptor 55 (Homo sapiens, UniProt Q9Y2T6). The experiment in a line: GPR55 antagonists, SAR follow-up, counter-screen for GPR35 antagonist project, imaging, image-based (AID 2397). Type of assay: functional. For orientation: Counterscreens check selectivity or assay interference.
Assay [5] deals with T3, Replicative DNA helicase DnaB (Mycobacterium tuberculosis, UniProt P9WMR3).
T3 sequence (P9WMR3 whole entry): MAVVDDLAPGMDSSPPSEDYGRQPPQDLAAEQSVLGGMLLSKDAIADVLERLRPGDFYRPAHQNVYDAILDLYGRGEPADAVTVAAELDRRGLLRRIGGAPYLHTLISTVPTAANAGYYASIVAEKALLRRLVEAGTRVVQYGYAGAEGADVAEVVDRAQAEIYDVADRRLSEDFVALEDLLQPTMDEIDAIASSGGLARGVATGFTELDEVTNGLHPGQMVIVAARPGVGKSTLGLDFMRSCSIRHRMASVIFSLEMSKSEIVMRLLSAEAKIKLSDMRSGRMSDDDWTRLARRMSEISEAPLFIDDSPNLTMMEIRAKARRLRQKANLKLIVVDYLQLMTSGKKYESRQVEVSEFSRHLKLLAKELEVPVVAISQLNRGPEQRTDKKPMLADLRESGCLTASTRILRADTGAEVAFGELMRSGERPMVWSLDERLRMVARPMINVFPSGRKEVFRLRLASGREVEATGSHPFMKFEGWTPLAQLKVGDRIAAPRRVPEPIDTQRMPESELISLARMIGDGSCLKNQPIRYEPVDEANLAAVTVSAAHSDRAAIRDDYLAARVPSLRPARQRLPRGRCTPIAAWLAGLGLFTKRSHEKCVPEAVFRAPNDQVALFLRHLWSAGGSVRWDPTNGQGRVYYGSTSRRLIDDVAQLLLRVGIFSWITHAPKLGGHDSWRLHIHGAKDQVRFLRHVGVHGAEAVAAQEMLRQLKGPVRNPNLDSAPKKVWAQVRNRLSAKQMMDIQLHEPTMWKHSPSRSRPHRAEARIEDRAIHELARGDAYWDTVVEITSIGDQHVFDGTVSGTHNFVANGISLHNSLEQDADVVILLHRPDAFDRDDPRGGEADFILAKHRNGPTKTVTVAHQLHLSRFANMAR
The experiment in a line: DnaB intein splicing inhibitors, dose response, biochemical, cell-free fluorescence (AID 449749). It counts as functional.

Another assay has as its target T4, Protein RecA (Mycobacterium tuberculosis, UniProt P9WHJ3).
T4 sequence (P9WHJ3 whole entry): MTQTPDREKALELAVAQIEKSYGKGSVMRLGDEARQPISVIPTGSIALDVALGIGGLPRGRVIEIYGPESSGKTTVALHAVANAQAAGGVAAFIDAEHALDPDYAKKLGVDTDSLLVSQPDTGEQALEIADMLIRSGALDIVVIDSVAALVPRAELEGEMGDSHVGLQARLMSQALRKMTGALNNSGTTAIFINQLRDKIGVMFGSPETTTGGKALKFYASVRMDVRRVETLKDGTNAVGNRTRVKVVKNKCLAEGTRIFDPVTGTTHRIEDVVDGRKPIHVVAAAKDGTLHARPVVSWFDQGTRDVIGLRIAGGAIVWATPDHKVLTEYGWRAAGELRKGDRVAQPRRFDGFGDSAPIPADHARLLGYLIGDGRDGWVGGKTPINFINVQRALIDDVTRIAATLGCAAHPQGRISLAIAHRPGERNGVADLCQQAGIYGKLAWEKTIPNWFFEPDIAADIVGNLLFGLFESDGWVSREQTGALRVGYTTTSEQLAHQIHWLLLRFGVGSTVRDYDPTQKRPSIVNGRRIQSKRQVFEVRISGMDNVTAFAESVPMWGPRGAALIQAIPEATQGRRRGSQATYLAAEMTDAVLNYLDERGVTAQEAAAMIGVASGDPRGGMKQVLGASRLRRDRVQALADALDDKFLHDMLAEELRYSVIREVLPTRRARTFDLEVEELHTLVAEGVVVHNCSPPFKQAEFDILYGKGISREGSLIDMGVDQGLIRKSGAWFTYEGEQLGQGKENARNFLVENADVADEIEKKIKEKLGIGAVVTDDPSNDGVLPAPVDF
The experiment in a line: Fluorescence Cell-Free Homogeneous Dose Retest to Identify Inhibitors of RecA-Intein Splicing Activity. [Related pubchem assays (depositor defined):AID2097, AID2223, AID489010, AID492950]. Type of assay: functional.

For assay [6], the target named is E3 ubiquitin-protein ligase XIAP (Homo sapiens, UniProt P98170). The assay can be described thus: Counter Screen using XIAP-Bir3 for Chemical Antagonists of Bir1/2 domains of IAP-family anti-apoptotic proteins. [Related pubchem assays (depositor defined):AID1018, AID1449, AID1514, AID1638, AID1749, AID1750, AID488957, AID488963].
The target of assay [7] is T5, Voltage-gated N-type calcium channel alpha-1B subunit/Amyloid beta A4 precursor protein-binding family A member 1 (Homo sapiens, UniProt Q00975+Q02410). It counts as protein assay.
Assay [8] deals with T5, Voltage-gated N-type calcium channel alpha-1B subunit/Amyloid beta A4 precursor protein-binding family A member 1. Type of assay: protein assay. This is another data set of the same source.
For a further assay, the target named is T6, Leucine aminopeptidase (Plasmodium falciparum 3D7, UniProt Q8IL11).
T6 sequence (Q8IL11 whole entry): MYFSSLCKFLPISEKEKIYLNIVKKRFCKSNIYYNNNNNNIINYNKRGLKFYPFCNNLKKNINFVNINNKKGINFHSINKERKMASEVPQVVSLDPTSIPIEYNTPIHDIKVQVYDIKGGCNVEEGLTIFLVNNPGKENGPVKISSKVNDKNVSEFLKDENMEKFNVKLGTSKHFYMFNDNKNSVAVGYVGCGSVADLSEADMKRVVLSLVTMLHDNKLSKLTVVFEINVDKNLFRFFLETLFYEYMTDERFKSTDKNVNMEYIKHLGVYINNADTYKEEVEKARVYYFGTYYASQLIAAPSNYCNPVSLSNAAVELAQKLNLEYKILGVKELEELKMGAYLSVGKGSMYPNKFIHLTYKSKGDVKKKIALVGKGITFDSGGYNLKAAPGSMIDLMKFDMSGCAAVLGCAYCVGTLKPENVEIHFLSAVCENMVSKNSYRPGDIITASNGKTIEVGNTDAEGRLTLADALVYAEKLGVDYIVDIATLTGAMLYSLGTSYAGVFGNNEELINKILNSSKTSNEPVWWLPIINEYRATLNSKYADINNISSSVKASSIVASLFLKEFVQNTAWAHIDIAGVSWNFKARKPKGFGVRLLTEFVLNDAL
The experiment in a line: P. falciparum M17LAP inhibitors, primary screen, biochemical, fluorogenic H-Leu-NHMec substrate, 1536-well (AID 1619). It counts as functional.

The target in assay [9] is DNA dC->dU-editing enzyme APOBEC-3A (Homo sapiens, UniProt P31941). The assay can be described thus: APOBEC3A DNA deaminase inhibitors, dose response, biochemical (AID 504722). It counts as functional.
The target of assay [10] is DNA dC->dU-editing enzyme APOBEC-3G (Homo sapiens, UniProt Q9HC16). The experiment in a line: Dose Response confirmation of small molecule APOBEC3G DNA Deaminase Inhibitors via a fluorescence-based single-stranded DNA deaminase assay. [Related pubchem assays (depositor defined):AID493012, AID493028]. Type of assay: functional.
A short description of assay [11]: growth suppression of PTEN-null colon cells, dose response, cell-based, HCT116 PTEN knockout (AID 1047).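 Further: HCT116 colon tumor cells with PTEN knocked out; cells exposed to compound for 60 hours before readout; potency for loss of cell viability measured by luminescence.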 Type of assay: functional.
Assay [12] is described as follows: growth suppression of beta-catenin-knockout colon cells, dose response, cell-based, HCT116, human colon tumor (AID 1045).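 Further: HCT116 colon tumor cells with beta catenin knocked out; cells exposed to compound for 60 hours.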 It counts as functional.
Assay [13] has as its target Scavenger receptor class B member 1 (Mus musculus, UniProt Q61009). The assay can be described thus: inhibitors of SR-BI mediated HDL lipid uptake, dose response, ldlA[mSR-BI] cells, fluorescence, cherry pick (AID 493194).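 Further: cellular uptake of fluorescent DiI-labeled HDL measured as cell fluorescence.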 Type of assay: functional, cell-based.
A short description of assay [14]: Shn3 3'UTR reporter inhibitors, dose response, cell-based, Clone20 osteoblasts, firefly luciferase, cherry-picked (AID 624132).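 Further: firefly luciferase luminescence from reporter carrying the Shn3 3'UTR in osteoblasts.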 It counts as functional.
Assay [15] can be described thus: HepG2 cell cytotoxicity, dose response, cytotoxicity control for Shn3 inhibitor project, CellTiter-Glo, cherry-picked (AID 624134). Type of assay: functional, cell-based. A general note: In ATP-based viability assays light output follows the ATP content of the culture.
Assay [16] in a line: control 3'UTR Renilla luciferase suppression, dose response, counter-screen for Shn3 inhibitor project, cell-based, Clone20-Shn3RL, cherry-picked (AID 624133). It counts as functional.
Assay [17] addresses T7, Tyrosine-protein phosphatase non-receptor type 7 (Homo sapiens, UniProt P35236).
T7 sequence (P35236 whole entry): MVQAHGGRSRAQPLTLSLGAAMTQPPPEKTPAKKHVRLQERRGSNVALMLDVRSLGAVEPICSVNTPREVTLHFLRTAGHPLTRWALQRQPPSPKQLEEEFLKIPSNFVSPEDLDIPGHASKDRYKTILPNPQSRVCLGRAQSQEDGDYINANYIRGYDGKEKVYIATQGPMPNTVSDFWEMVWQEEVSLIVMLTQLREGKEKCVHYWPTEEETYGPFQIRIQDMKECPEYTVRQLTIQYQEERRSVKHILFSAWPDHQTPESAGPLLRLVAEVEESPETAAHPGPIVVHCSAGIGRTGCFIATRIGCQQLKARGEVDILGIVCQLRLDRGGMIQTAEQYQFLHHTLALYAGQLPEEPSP
Type of assay: functional.

Assay [18] has as its target Glyceraldehyde-3-phosphate dehydrogenase (Homo sapiens, UniProt P04406).
Assay [19] concerns the target T8, Dual specificity protein phosphatase 6 (Rattus norvegicus, UniProt Q64346).
T8 sequence (Q64346 whole entry): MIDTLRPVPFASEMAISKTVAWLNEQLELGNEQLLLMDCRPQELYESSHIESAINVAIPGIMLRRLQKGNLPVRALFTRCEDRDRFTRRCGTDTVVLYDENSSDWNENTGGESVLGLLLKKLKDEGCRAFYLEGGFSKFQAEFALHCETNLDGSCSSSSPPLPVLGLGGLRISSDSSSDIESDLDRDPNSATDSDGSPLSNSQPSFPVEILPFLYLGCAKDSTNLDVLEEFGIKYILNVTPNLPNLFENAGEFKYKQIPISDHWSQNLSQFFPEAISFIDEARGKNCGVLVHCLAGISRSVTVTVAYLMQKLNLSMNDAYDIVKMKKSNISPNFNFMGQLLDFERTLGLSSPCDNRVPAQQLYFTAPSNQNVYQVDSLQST

The target in assay [20] is T8, Dual specificity protein phosphatase 6. It counts as functional.

Results on ten compounds are retold here after ChEMBL document CHEMBL1201862, “PubChem BioAssay data set” (2004).

SMILES strings stand for the structures. The source made the active and inactive calls.

T5 sequence (Q00975 whole entry): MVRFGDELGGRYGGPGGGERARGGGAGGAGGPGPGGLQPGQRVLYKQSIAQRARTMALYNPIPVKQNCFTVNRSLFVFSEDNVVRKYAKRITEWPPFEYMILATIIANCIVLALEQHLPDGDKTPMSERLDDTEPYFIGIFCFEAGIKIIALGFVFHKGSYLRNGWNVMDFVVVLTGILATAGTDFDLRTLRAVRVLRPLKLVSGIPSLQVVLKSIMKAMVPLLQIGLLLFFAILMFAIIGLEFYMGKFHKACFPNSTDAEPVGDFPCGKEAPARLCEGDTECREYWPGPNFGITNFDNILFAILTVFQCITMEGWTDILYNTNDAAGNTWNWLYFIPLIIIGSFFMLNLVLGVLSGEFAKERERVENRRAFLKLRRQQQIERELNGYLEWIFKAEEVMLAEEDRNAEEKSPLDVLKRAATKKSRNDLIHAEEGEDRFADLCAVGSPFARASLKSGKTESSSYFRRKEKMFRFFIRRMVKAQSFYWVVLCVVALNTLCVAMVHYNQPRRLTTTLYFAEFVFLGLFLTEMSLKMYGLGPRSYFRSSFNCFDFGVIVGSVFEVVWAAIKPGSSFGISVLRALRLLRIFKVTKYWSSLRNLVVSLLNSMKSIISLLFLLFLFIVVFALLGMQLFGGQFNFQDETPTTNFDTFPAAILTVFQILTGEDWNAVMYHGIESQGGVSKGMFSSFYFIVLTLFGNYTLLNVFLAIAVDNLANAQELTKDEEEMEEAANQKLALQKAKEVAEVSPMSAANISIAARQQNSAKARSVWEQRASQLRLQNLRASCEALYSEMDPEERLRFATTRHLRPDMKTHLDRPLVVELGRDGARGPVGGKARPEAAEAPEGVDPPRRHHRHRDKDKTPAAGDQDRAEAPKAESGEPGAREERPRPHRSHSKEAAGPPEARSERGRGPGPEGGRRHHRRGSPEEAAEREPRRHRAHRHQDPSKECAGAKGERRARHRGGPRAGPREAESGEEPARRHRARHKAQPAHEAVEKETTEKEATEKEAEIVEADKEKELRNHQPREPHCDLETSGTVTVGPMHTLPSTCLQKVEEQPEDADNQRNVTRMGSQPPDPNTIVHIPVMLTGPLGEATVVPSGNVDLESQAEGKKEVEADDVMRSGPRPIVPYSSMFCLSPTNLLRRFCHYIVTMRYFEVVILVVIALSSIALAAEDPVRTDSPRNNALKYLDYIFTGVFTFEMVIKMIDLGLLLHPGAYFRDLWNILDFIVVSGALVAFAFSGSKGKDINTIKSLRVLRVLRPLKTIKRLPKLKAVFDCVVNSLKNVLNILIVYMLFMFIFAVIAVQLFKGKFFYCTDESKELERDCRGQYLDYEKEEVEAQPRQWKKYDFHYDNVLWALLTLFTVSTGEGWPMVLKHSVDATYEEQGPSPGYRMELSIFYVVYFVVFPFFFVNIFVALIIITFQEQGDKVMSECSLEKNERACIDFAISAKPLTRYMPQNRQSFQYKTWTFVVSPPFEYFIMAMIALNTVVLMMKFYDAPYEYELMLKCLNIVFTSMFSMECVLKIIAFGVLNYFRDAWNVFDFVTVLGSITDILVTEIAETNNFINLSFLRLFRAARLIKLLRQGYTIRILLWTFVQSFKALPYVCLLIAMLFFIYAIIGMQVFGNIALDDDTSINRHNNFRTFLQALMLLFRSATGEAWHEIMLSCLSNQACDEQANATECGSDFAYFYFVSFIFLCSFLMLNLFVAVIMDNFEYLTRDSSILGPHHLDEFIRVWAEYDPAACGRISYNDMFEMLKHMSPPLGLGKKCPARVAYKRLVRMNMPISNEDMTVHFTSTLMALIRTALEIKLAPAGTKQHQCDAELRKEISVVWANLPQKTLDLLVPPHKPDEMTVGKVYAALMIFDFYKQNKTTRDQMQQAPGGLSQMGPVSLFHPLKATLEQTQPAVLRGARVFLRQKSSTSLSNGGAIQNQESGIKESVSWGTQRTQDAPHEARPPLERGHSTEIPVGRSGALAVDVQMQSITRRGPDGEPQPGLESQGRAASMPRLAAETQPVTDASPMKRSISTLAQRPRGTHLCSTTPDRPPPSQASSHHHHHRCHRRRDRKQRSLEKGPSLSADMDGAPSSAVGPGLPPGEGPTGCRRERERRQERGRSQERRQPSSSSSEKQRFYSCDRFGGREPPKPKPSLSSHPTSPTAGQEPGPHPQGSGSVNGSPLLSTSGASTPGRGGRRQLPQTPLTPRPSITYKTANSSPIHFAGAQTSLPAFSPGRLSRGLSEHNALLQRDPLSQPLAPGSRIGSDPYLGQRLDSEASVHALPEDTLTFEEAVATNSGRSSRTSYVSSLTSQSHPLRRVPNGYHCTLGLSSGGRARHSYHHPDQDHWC
T5 sequence (Q02410 whole entry): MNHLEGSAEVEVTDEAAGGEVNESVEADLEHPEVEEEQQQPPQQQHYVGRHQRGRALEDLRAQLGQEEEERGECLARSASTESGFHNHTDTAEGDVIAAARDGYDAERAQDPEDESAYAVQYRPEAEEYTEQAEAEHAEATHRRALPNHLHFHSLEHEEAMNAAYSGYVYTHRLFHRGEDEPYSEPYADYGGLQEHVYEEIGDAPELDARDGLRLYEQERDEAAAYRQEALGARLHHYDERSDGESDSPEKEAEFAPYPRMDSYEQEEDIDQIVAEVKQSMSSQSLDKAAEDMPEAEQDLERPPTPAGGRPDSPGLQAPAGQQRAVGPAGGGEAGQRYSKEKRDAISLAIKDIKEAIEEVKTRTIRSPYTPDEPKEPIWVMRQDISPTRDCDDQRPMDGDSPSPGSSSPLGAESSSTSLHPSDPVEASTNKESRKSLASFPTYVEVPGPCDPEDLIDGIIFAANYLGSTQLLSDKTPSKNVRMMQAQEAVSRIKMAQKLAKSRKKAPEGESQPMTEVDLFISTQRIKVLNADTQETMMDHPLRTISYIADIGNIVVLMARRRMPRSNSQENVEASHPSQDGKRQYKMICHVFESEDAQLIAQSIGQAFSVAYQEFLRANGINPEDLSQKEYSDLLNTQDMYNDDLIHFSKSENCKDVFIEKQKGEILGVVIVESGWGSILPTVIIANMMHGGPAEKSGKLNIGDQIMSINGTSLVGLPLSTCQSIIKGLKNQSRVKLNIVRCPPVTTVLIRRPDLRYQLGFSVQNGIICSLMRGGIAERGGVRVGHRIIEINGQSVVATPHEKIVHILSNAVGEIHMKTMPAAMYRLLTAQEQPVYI
Chain of Glyceraldehyde-3-phosphate dehydrogenase (P04406 whole entry): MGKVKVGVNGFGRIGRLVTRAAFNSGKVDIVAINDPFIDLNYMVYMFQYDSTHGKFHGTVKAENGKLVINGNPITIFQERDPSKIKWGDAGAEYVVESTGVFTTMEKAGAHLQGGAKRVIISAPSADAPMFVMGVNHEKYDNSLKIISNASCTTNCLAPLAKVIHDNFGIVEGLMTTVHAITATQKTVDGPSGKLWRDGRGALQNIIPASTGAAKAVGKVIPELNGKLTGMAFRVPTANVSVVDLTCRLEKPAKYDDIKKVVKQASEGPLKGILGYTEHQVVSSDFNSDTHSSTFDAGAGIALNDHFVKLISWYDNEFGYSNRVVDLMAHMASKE
Chain of Scavenger receptor class B member 1 (Q61009 whole entry): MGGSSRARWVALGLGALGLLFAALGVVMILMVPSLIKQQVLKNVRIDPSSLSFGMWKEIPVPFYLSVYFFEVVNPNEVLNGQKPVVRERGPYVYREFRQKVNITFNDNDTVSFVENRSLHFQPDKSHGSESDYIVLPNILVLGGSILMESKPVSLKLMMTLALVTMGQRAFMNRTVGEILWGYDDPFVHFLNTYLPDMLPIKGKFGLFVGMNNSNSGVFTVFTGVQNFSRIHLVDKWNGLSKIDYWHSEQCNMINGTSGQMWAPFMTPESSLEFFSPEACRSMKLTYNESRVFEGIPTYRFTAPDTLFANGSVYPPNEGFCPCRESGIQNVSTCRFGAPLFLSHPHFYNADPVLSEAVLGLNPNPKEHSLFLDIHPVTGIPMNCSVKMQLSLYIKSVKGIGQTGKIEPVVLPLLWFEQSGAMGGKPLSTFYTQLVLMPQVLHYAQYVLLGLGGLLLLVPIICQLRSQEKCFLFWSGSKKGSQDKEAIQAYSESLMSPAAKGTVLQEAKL
Chain of DNA dC->dU-editing enzyme APOBEC-3G (Q9HC16 whole entry): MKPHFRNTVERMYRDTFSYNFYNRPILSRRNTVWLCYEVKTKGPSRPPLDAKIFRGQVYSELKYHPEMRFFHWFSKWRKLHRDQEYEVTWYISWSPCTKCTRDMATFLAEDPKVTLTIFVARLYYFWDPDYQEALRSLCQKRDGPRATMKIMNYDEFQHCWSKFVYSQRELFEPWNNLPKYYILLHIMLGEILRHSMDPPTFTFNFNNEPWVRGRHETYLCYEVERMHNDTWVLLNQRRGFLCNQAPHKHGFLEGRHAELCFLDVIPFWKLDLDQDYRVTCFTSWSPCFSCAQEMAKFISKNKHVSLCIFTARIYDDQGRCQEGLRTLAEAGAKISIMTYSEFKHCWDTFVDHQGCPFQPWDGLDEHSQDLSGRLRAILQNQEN
Chain of G-protein coupled receptor 55 (Q9Y2T6 whole entry): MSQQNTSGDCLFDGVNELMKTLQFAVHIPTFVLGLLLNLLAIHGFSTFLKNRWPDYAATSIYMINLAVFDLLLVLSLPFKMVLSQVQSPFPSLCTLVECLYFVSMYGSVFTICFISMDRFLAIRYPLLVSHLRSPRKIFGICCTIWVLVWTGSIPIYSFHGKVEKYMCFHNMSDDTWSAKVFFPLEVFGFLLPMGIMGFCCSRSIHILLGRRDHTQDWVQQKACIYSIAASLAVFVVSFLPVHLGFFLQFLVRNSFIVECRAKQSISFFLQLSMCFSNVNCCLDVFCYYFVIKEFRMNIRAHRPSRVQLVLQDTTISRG
Chain of DNA dC->dU-editing enzyme APOBEC-3A (P31941 whole entry): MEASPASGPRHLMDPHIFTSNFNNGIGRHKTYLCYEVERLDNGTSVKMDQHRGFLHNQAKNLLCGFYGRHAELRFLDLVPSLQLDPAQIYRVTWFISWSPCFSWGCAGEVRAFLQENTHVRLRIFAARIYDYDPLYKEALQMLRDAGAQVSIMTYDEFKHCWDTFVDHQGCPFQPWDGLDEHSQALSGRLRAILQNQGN

With `CCN1C(=O)c2cccc3c(NC(=O)c4ccc(S(=O)(=O)N5CCOCC5)cc4)ccc1c23`, the IC50 is > 20 µM (inactive) at Bcl-2-related protein A1, 10.4 µM (active) in assay [1] and 9.74 µM (active) in [2].

As to `O=C(CCCN1C(=O)/C(=C\c2cccs2)SC1=S)Nc1ccc(O)cc1`, the CC50 in assay [3] was 12.5 µM (active). Also, the IC50 in assay [4] was 29.5 µM (inactive). The AC50 in assay [5] is 2.19 µM (active). In addition, the EC50 on Protein RecA was 5.95 µM (active).

For the compound `CCC(=O)NC(=S)NNC(=O)c1ccc(O)cc1`, the IC50 at Bcl-2-related protein A1 is > 20 µM (inactive); in [1] it was 12.2 µM (active); in assay [2] it was 8.9 µM (active).

`O=c1[nH]n(-c2ccc([N+](=O)[O-])cc2)c(=O)c2ccccc12`: in assay [6], the IC50 was > 20 µM (inactive).

Regarding `CN(CCOC(=O)/C=C/c1ccco1)Cc1ccccc1`, the values for the IC50 in [7] and in assay [8] were 29.1 µM (active) and 18.5 µM (active), respectively.

Take `CCOc1ccc(N2C(=O)CC(Sc3n[nH]c(-c4ccccc4)n3)C2=O)cc1` (stereo unspecified): the IC50 at Leucine aminopeptidase is 11.1 µM (active); in assay [9], > 100 µM (inactive); in assay [10] it was 14 µM (active).

Take `O=C(Nc1ccc(Cl)c(Cl)c1)Nc1ccc(N2CCCC2)c(S(=O)(=O)Nc2ccccc2Cl)c1`: the EC50 in assay [11] was 3.35 µM (active); in assay [12] it was 3.8 µM (active). Besides, the AC50 is 12.7 µM (active) in assay [13], 5.13 µM (active) in [14], 27 µM (active) in [15] and 11.4 µM (active) in assay [16].

On to `CCCCCCCCCCCCCCCCCCC#CCCCCCCCCCCCC(=O)O`, for which the IC50 in assay [17] was 28.3 µM (active); in [18] it was > 100 µM (not active); in [19], > 100 µM (inactive); in assay [20], > 100 µM (inactive).

For `Cn1c(=O)n(-c2ccc(Cl)cc2)c(=O)n([C@@H](Cc2ccccc2)C(N)=O)c1=O`, the IC50 in assay [17] is > 100 µM (not active); in assay [18], > 100 µM (not active); in assay [19], > 100 µM (inactive); in assay [20], > 100 µM (inactive).

Regarding `O=C(NNC(=O)c1cc(Br)ccc1O)c1csc(N2CCOCC2)n1`, the AC50 in [13] was 2.75 µM (active).

A word on the IC50: it is the point on the concentration scale where inhibition reaches its midpoint. A word on the CC50: it is the concentration giving 50% cytotoxicity. Usually AC50 stands for the concentration at which the activity in the assay is half-maximal. In general, EC50 refers to the concentration giving half of the maximal effect.
